Reference: ChEMBL document CHEMBL1201862, “PubChem BioAssay data set” (2004)
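Interpolation was linear, between the two tested concentrations surrounding the appropriate level; five concentrations were tested over 48 hours in 96-well plates. Here, GI50 denotes the concentration required for 50% inhibition of growth.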 Active and inactive are the calls of the source. Rule as the data show it: active = GI50 up to about 1.1 µM and inactive = higher.

Assays:
Assay in all cases: NCI tumour cell line growth inhibition, 48 h
786-0 = tested on: 786-0
A498 = tested on: A498
A549 = tested on: A549
ACHN = tested on: ACHN
CCRF-CEM = tested on: CCRF-CEM
DLD-1 = tested on: DLD-1
DMS-114 = tested on: DMS-114
DMS-273 = tested on: DMS-273
HCT-116 = tested on: HCT-116
HCT-15 = tested on: HCT-15
HL-60 = tested on: HL-60
HOP-18 = tested on: HOP-18
HT-29 = tested on: HT-29
IGROV-1 = tested on: IGROV-1
K562 = tested on: K562
KM12 = tested on: KM12
LOX IMVI = tested on: LOX IMVI
LXFL 529 = tested on: LXFL 529
M14 = tested on: M14
M19-MEL = tested on: M19-MEL
MOLT-4 = tested on: MOLT-4
Malme-3M = tested on: Malme-3M
NCI-H226 = tested on: NCI-H226
NCI-H23 = tested on: NCI-H23
NCI-H460 = tested on: NCI-H460
NCI-H522 = tested on: NCI-H522
OVCAR-3 = tested on: OVCAR-3
OVCAR-4 = tested on: OVCAR-4
OVCAR-8 = tested on: OVCAR-8
RXF 393 = tested on: RXF 393
SF-268 = tested on: SF-268
SF-295 = tested on: SF-295
SF-539 = tested on: SF-539
SK-MEL-28 = tested on: SK-MEL-28
SK-MEL-2 = tested on: SK-MEL-2
SK-MEL-5 = tested on: SK-MEL-5
SK-OV-3 = tested on: SK-OV-3
SN12C = tested on: SN12C
SNB-19 = tested on: SNB-19
SNB-75 = tested on: SNB-75
SNB-78 = tested on: SNB-78
TK-10 = tested on: TK-10
U-251 = tested on: U-251
UACC-257 = tested on: UACC-257
UACC-62 = tested on: UACC-62
UO-31 = tested on: UO-31
XF498 = tested on: XF498
CAKI-1 = tested on: CAKI-1
COLO 205 = tested on: COLO 205
EKVX = tested on: EKVX
HCC 2998 = tested on: HCC 2998
HOP-62 = tested on: HOP-62
HOP-92 = tested on: HOP-92
KM-20L2 = tested on: KM-20L2
MCF7 = tested on: MCF7
NCI/ADR-RES = tested on: NCI/ADR-RES
OVCAR-5 = tested on: OVCAR-5
RPMI-8226 = tested on: RPMI-8226
SW-620 = tested on: SW-620

O=C(NN1C(=O)C(Cl)C1c1c(O)ccc2ccccc12)c1ccccc1O (stereo not given)
GI50 (786-0): > 100 µM (inactive) | GI50 (A498): 8.45 µM (inactive) | GI50 (A549): > 100 µM (inactive) | GI50 (ACHN): > 100 µM (inactive) | GI50 (CCRF-CEM): > 100 µM (inactive) | GI50 (DLD-1): > 100 µM (inactive) | GI50 (DMS-114): > 100 µM (inactive) | GI50 (DMS-273): > 100 µM (inactive) | GI50 (HCT-116): > 100 µM (inactive) | GI50 (HCT-15): > 100 µM | GI50 (HL-60): > 100 µM (inactive) | GI50 (HOP-18): > 100 µM (inactive) | GI50 (HT-29): > 100 µM (inactive) | GI50 (IGROV-1): > 100 µM (inactive) | GI50 (K562): > 100 µM (inactive) | GI50 (KM12): > 100 µM (inactive) | GI50 (LOX IMVI): > 100 µM (inactive) | GI50 (LXFL 529): > 100 µM (inactive) | GI50 (M14): > 100 µM (inactive) | GI50 (M19-MEL): > 100 µM (inactive) | GI50 (MOLT-4): > 100 µM (inactive) | GI50 (Malme-3M): > 100 µM (inactive) | GI50 (NCI-H226): > 100 µM (inactive) | GI50 (NCI-H23): > 100 µM (inactive) | GI50 (NCI-H460): > 100 µM (inactive) | GI50 (NCI-H522): > 100 µM (inactive) | GI50 (OVCAR-3): > 100 µM (inactive) | GI50 (OVCAR-4): > 100 µM (inactive) | GI50 (OVCAR-8): > 100 µM (inactive) | GI50 (RXF 393): > 100 µM (inactive) | GI50 (SF-268): > 100 µM (inactive) | GI50 (SF-295): > 100 µM (inactive) | GI50 (SF-539): > 100 µM (inactive) | GI50 (SK-MEL-28): > 100 µM (inactive) | GI50 (SK-MEL-2): > 100 µM (inactive) | GI50 (SK-MEL-5): > 100 µM (inactive) | GI50 (SK-OV-3): > 100 µM (inactive) | GI50 (SN12C): > 100 µM (inactive) | GI50 (SNB-19): > 100 µM (inactive) | GI50 (SNB-75): > 100 µM (inactive) | GI50 (SNB-78): > 100 µM (inactive) | GI50 (TK-10): > 100 µM (inactive) | GI50 (U-251): > 100 µM (inactive) | GI50 (UACC-257): > 100 µM (inactive) | GI50 (UACC-62): > 100 µM (inactive) | GI50 (UO-31): > 100 µM (inactive) | GI50 (XF498): > 100 µM (inactive)

CCCCCCCC/C=C\CCCCCCCCCCCC(=O)O [ERUCIC ACID]
GI50 (A498): 0.891 µM (active) | GI50 (A549): 38.5 µM (inactive) | GI50 (CAKI-1): 42 µM (inactive) | GI50 (CCRF-CEM): 24.4 µM (inactive) | GI50 (COLO 205): 20.2 µM (inactive) | GI50 (DLD-1): 42.4 µM (inactive) | GI50 (DMS-273): 22.2 µM (inactive) | GI50 (EKVX): 34 µM (inactive) | GI50 (HCC 2998): 44.1 µM (inactive) | GI50 (HCT-116): 22.3 µM (inactive) | GI50 (HCT-15): 43.7 µM | GI50 (HL-60): 19.3 µM (inactive) | GI50 (HOP-18): 46.2 µM (inactive) | GI50 (HOP-62): 30.1 µM (inactive) | GI50 (HOP-92): 38.9 µM (inactive) | GI50 (HT-29): 43.8 µM (inactive) | GI50 (IGROV-1): 55.1 µM (inactive) | GI50 (K562): 22.1 µM (inactive) | GI50 (KM-20L2): 38.3 µM (inactive) | GI50 (KM12): 22.3 µM (inactive) | GI50 (LOX IMVI): 29.4 µM (inactive) | GI50 (M19-MEL): 26.2 µM (inactive) | GI50 (MCF7): 14.9 µM (inactive) | GI50 (MOLT-4): 37.3 µM (inactive) | GI50 (Malme-3M): 47.9 µM (inactive) | GI50 (NCI-H226): 52.4 µM (inactive) | GI50 (NCI-H23): 25.5 µM (inactive) | GI50 (NCI-H460): 7.48 µM (inactive) | GI50 (NCI-H522): 19.8 µM (inactive) | GI50 (NCI/ADR-RES): 86.3 µM (inactive) | GI50 (OVCAR-3): 17.8 µM (inactive) | GI50 (OVCAR-4): 30.8 µM (inactive) | GI50 (OVCAR-5): 102 µM (inactive) | GI50 (OVCAR-8): 37.2 µM (inactive) | GI50 (RPMI-8226): 45.6 µM (inactive) | GI50 (RXF 393): 8.02 µM (inactive) | GI50 (SF-268): 52.4 µM (inactive) | GI50 (SF-295): 35.3 µM (inactive) | GI50 (SF-539): 16.8 µM (inactive) | GI50 (SK-MEL-28): 32.7 µM (inactive) | GI50 (SK-MEL-2): 18 µM (inactive) | GI50 (SK-MEL-5): 18.8 µM (inactive) | GI50 (SK-OV-3): > 85.9 µM (inactive) | GI50 (SN12C): 32.6 µM (inactive) | GI50 (SNB-19): 30.8 µM (inactive) | GI50 (SNB-75): 37 µM (inactive) | GI50 (SNB-78): 44.4 µM (inactive) | GI50 (SW-620): 31.6 µM (inactive) | GI50 (U-251): 37.9 µM (inactive) | GI50 (UACC-257): 58.2 µM (inactive) | GI50 (UACC-62): 27.5 µM (inactive) | GI50 (UO-31): 74 µM (inactive) | GI50 (XF498): 1.48 µM (inactive)
